{"source": "paper PMC4984525", "about": "(Cancer, 2011)", "origin": "cited, not measured here", "test_system": "K562", "conditions": "K562 subcutaneous xenograft, mouse; cited from earlier work", "data": [{"molecule": "CON(C)C(=O)N1N=C(c2cc(F)ccc2F)S[C@@]1(CCCN)c1ccccc1", "note": "[ARRY-520]", "values": [{"measurement": "anti-cancer efficacy", "result": "demonstrated anti-cancer efficacy"}]}]}
